Experimental data as given in US11224223B2, “Feeding deterrence of pests such as Hemiptera, Lepidoptera and Coleoptera” (BEDOUKIAN RESEARCH, INC., priority 2012, dated 2022).

Assays:
Assay type in all cases: in vivo
Codling Moth larvae = experiment: Repellency as feeding deterrence and mortality in Codling Moth larvae on treated media; conditions: compound at 3.5% in a 57% Ethanol:43% water solution; for Repellency at 24 hours: first instar larva, control 8%
Description: Another test was designed to measure the repellency as feeding deterrence in Codling Moth larvae. The treatment was applied to the surface of a proprietary laboratory media in a tray with wells for each compound. The media was allowed to dry for 30-60 minutes so that larvae were not exposed to it as a liquid. One first instar codling moth larva was then placed on the treated media. The cover film was placed on the tray to prevent escapes. Ten additional replicates treated with a 57% ethanol solution were prepared to serve as controls. […] After the 24 hour reading, the larvae were extracted from the media to record any mortality.
Mortality observations were also made for the above protocol. The control was the 57% ethanol:43% water solution.

granary weevils = experiment: Granary weevil test on treated wheat kernels; conditions: 5% in isopropyl alcohol, 3 week period
Description: Ten replicates of 30 kernels of wheat were immersed into the test compound and allowed to dry for 24 hours. The grains were then transferred to a test container, and 10 granary weevils were released. Test containers were secured and left for a 3 week period. At the end of this time, the wheat grains were examined for developing larvae and damage by larvae. […] Ten additional replicates treated with isopropyl alcohol were prepared to serve as controls.

Aphis gossypii = experiment: Melon aphid repellency on leaf choice assays; conditions: 3% compound in a Triton X:Water solution; n=100; control 50/50
Source text: Melon Aphid Repellency on Leaf Choice Assays Aphis gossypii are maintained on squash plants. Individual aphids (n=100) are given the choice between leaves with and without repellent treatments. A separate group of aphids are given a choice between untreated vs. untreated leaves as a control. The number of aphids choosing each leaf is counted both choice tests. The number of aphids choosing each treatment is compared to the control to determine the repellent effect.

psyllids = experiment: Psyllid repellency on potato choice assays; conditions: 3% compound; potato plants; 100 psyllids per cage; control 50/50
Source text: Psyllid Repellency on Potato Choice Assays
Potato plants are sprayed with either a 3% solution of repellent chemical in a 5%:95% ETOH:Water or only 5%:95% ETOH:Water as a control. Two plants are placed in a screen cage, either a treatment vs control tree or a control vs control tree, 100 psyllids are released into each cage. The number of psyllids choosing each leaf is counted for both choice tests. The number of psyllids choosing each treatment is compared to the control to determine if there is a repellent effect.

[1] = system: Euschistus heros-Neotropical Brown Stink Bugs; experiment: Stink bug feeding damage on soybean pods; conditions: 3% compound, soybean plants at R6 stage, 48 hours
Description: To compare the feeding/resting preference of stink bug adults for different plant parts, 10 pots with soybean plants at the R6 (pod-filling) stage of development are used. 5 pots of soybeans are sprayed with 3% of treatment in a 2% Triton X:water solution and 5 pots of soybean are treated with 2% Triton X:water solution as controls. Thirty stink bugs are placed individually in each cage and allowed to feed for 48 hours. Insects are removed and plant parts are collected for visual analysis of damage. Feeding damage on the pods is counted for both treatments. The selective antifeeding rate (%) formula is [(C−T)/(C+T)]×100, and the non-selective antifeeding rate (%) formula is [(C−T)/C)]×100, where C and T are the numbers of feeding damages on the control and treated plant pods, respectively.

Popillia japonica = experiment: Japanese beetle feeding damage on basil; conditions: 3% compound; basil leaf disks; adult beetle; 24 h
Description: Japanese Beetle Feeding Damage on Basil For choice feeding assays, 3% alcohol solutions of the tested compounds are prepared. Disks (4.0 cm in diameter) are cut from basil leaves and are dipped in the test solutions or alcohol alone as a control. After the complete evaporation of the solvent, the disks are offered to 1 adult beetle. All dishes are placed in an incubator. Four replicates are used for each chemical. After 24 h, the remaining uneaten area of each basil leaf disk is measured using a scanner and software. The selective antifeeding rate (%) formula is [(C−T)/(C+T)]×100, and the non-selective antifeeding rate (%) formula is [(C−T)/C)]×100, where C and T are the areas consumed by the control and treated leaf disks, respectively.

saw tooth grain beetles = experiment: Repellency of test compounds on grain beetles, treated corn kernels; conditions: 5% in isopropyl alcohol, 3 week period
Description: Ten replicates of 30 kernels of corn are immersed into the test compound and allowed to dry for 24 hours. The kernels are then transferred to a test container, and 10 saw tooth grain beetles are released. Test containers are secured and left for a 3 week period. At the end of this time, the […] grains are examined for feeding damage. […] Ten additional replicates treated with isopropyl alcohol are prepared to serve as controls.

Tineola spp. = experiment: Clothes moth feeding damage on silk fabric, choice test; conditions: 3% compound; silk disks; late instar larvae; 24 hours; control 50/50
Description: For feeding assays, 3% alcohol solutions of the tested compounds are prepared. Disks (2.0 cm in diameter) of undyed silk fabric are dipped in the test solutions or alcohol alone as a control. After the complete evaporation of the solvent, the disks are presented in a choice test to 10 late instar Tineola spp. larvae. All dishes are placed in an incubator in the dark. Four replicates are used for each chemical. After 24 hours, the number of individuals choosing to feed on each disk are counted.

Plodia interpunctella = experiment: Feeding repellent assay for Indian meal moth larva on treated rice; conditions: 10% compound in a 5% Ethanol:95% water solution, third instar larvae, 1 week
Description: (§1) Feeding Repellent Assay for Indian Meal Moth Larva One gram of rice is weighed and treated with 2% by weight of each test chemical or ethanol as a control for each treatment and replicate. The grains are allowed to dry and then weighed again. Treated or control rice grains are placed in a petri dish. Third instar larvae are starved for 8 h and gently introduced into the center of each compartment. 20 larva are screened per treatment, and each experiment is repeated three times. The weight of rice grains is measured again after 1 week. The selective antifeeding rate (%) formula is [(C−T)/(C+T)]×100, and the non-selective antifeeding rate (%) formula is [(C−T)/C)]×100, where C and T are the areas consumed by the control and treated leaf disks, respectively.

Sitostroga cerealella = experiment: Feeding repellent assay for Angoumois larva on treated rice; conditions: 10% compound in a 5% Ethanol:95% water solution, third instar larvae, 1 week
Description: Feeding Repellent Assay for Angoumois Larva
as §1, with “One” for “Feeding Repellent Assay for Indian Meal Moth Larva One”

## CCCCCC1C(=O)CCC1CC(=O)OCCC (stereo not shown) [Propyl Dihydrojasmonate]
Codling Moth larvae
  Increased Mortality over Control Mortality at 24 hours: 18%
  Repellency at 24 hours: 59%
Granary weevils
  Increased Repellency vs. Control Repellency: 8%
Aphis gossypii
  Number of Aphids Choosing each Treatment: Treated: 30
  Number of Aphids Choosing each Treatment: Untreated: 70
psyllids
  Number of Psyllids Choosing each Treatment: Treated: 30
  Number of Psyllids Choosing each Treatment: Untreated: 70
[1]
  % Antifeedent Activity: 100%
Popillia japonica
  % Repellency: 15%
Saw tooth grain beetles
  Increased Repellency vs. Control Repellency: 10%
Tineola spp.
  Individuals choosing to feed on each disk: Treated: 20
  Individuals choosing to feed on each disk: Untreated: 80
Plodia interpunctella
  % Antifeedent Activity: 60%
Sitostroga cerealella
  % Antifeedent Activity: 60%

## CC/C(C)=C/CC/C(C)=C/CC1CCCC1=O (stereo not shown) [Methyl Apritone]
Codling Moth larvae
  Increased Mortality over Control Mortality at 24 hours: 95%
  Repellency at 24 hours: 100%
Granary weevils
  Increased Repellency vs. Control Repellency: 11%
Aphis gossypii
  Number of Aphids Choosing each Treatment: Treated: 30
  Number of Aphids Choosing each Treatment: Untreated: 70
psyllids
  Number of Psyllids Choosing each Treatment: Treated: 30
  Number of Psyllids Choosing each Treatment: Untreated: 70
[1]
  % Antifeedent Activity: 60%
Popillia japonica
  % Repellency: 15%
Saw tooth grain beetles
  Increased Repellency vs. Control Repellency: 10%
Tineola spp.
  Individuals choosing to feed on each disk: Treated: 20
  Individuals choosing to feed on each disk: Untreated: 80
Plodia interpunctella
  % Antifeedent Activity: 70%
Sitostroga cerealella
  % Antifeedent Activity: 70%
